Results taken from patent publication US9023878B2 (Neurophyxia B.V., priority 2010, dated 2015).
Several values for one entry are separate records, joined by “and”; a condition that tells them apart may be missing. Equal values may be shown once.

How the values were obtained:
[1] = Solubility/encapsulation in cyclodextrin solutions (excess 2-IB, three days, filtered, RP-HPLC)
Experimental: An excess of 2-IB was added to the cyclodextrin solutions, mixed at room temperature for three days and then filtered to remove non-encapsulated) non-solubilised 2-IB.

[2] = Surfactants: stepwise solubility in surfactant solutions in 5% dextrose; assay type: physicochemical; conditions: nominal 1.6 mg/ml, without addition of acid
Experimental: Stock solutions of the surfactant were prepared in 5% dextrose.

[3] = Formulation preparation: dissolution and titration to higher pH; assay type: physicochemical; conditions: 1.5 mg/g of 2-IB at pH 7.0, overnight stirring
From the text: This might be due to the different approaches for the solubility testing and the formulation preparation. […] The six formulations were all transparent and colorless solutions.
It is not feasible to increase the solubility by preparing a formulation at a low pH first and then titrate to a high pH.

[4] = Solvent selection: stepwise solvent addition, solubility judged visually
Experimental: Solubility of 2-IB was determined in the following solvents: • 0.9% Sodium chloride in water • 5% Dextrose in water • N,N-dimethylacetamide • N,N-dimethylformamide • Dimethyl sulfoxide • Ethanol • Propolyene glycol • Polyethyleneglycol 400 • Corn oil
Approximately 10 mg of 2-IB was weighed into a 10 ml tube. Subsequently, small aliquots (100 μl-100 μl-200 μl-400 μl-800 μl-1600 μl-3200 μl) of the respective solvents were added stepwise. After each addition, the solution was mixed intensively and visually judged for solubility.
Therefore the experiment was repeated for propylene glycol but with addition of 100 μl 1N hydrochloric acid after 200 μl propylene glycol (i.e. 10 mg 2-IB+200 μl propylene glycol+100 μl 1N hydrochloric acid).
When an acidified 2-IB formulation in 5% dextrose is prepared, the pH after acidification is approximately 2 for nominal 2-IB concentrations in the range 1-5 mg/ml.

[5] = Solubility of 2-IB in water at different pH; assay type: physicochemical
[6] = Solubility of 2-IB (5 mg/ml) using different acids; assay type: physicochemical
[7] = Solubility in citrate buffers (excess 2-IB, filtered, RP-HPLC); assay type: physicochemical
Experimental: An excess of 2-IB was added to citrate buffers, mixed at room temperature and then filtered to remove nonsolubilised 2-IB.

[8] = Physical stability of saturated 10% SBE-CD solutions, 5 days at 5° C. and RT; assay type: physicochemical; conditions: saturated solution; note: key: −: Precipitation of 2-IB; +: no precipitation
[9] = 960 mg/kg/24 h 2-IB in 5% Solutol, continuous iv infusion

Experimental for Wistar rats: Group I: Vehicle 20% Solutol (Continuous Intravenous Infusion)
Animals received a continuous infusion of vehicle only (20% Solutol in 5% dextrose) at a dose volume of 4 mL/kg/h for 24 hours.
Group II: Vehicle 5% Solutol (Continuous Intravenous Infusion)
Animals received a continuous infusion of vehicle only (5% Solutol in 5% dextrose) at a dose volume of 4 mL/kg/h for approximately 96 hours.
Group III: 960 mg/kg/24 h of 2-IBin 5% Solutol (Continuous Intravenous Infusion).

With `N=C1N[C@H]2[C@H](CS[C@H]2CCCCC(=O)O)N1` [Formulation 2-IB, 2-iminobiotin] the “concentration of 2-IB” value ([1]; 5% HP-CD, Citrate pH 4.0, final pH 4.3) was 3000 µg/mL, the “concentration of 2-IB” value ([1]; 5% HP-CD, Citrate pH 5.0, final pH 5.1) was 1200 µg/mL and the “concentration of 2-IB” value ([1]; 5% HP-CD, WFI, final pH 6.5) was 500 µg/mL. The “concentration of 2-IB” value ([1]; 5% SBE-CD, Citrate pH 4.0, final pH 4.4) was 5500 µg/mL, the “concentration of 2-IB” value ([1]; 5% SBE-CD, Citrate pH 5.0, final pH 5.1) was 2900 µg/mL and the “concentration of 2-IB” value ([1]; 5% SBE-CD, WFI, final pH 6.5) was 1000 µg/mL. For the same compound, the “concentration of 2-IB” value ([1]; 10% HP-CD, Citrate pH 4.0, final pH 4.5) was 4100 µg/mL, the “concentration of 2-IB” value ([1]; 10% HP-CD, Citrate pH 5.0, final pH 5.2) was 1600 µg/mL and the “concentration of 2-IB” value ([1]; 10% HP-CD, WFI, final pH 6.5) was 600 µg/mL. The “concentration of 2-IB” value ([1]; 10% SBE-CD, Citrate pH 4.0, final pH 4.6) was 8000 µg/mL, the “concentration of 2-IB” value ([1]; 10% SBE-CD, Citrate pH 5.0, final pH 5.1) was 4600 µg/mL and the “concentration of 2-IB” value ([1]; 10% SBE-CD, WFI, final pH 6.5) was 1500 µg/mL. The “concentration of 2-IB” value ([1]; 20% HP-CD, Citrate pH 4.0, final pH 4.7) was 5100 µg/mL, the “concentration of 2-IB” value ([1]; 20% HP-CD, Citrate pH 5.0, final pH 5.3) was 2100 µg/mL and the “concentration of 2-IB” value ([1]; 20% HP-CD, WFI, final pH 6.6) was 900 µg/mL. For the same compound, the “concentration of 2-IB” value ([1]; 20% SBE-CD, Citrate pH 4.0, final pH 4.9) was 11400 µg/mL, the “concentration of 2-IB” value ([1]; 20% SBE-CD, Citrate pH 5.0, final pH 5.3) was 7000 µg/mL and the “concentration of 2-IB” value ([1]; 20% SBE-CD, WFI, final pH 6.7) was 2400 µg/mL. For the same compound, the “concentration of 2-IB” value ([1]; 40% HP-CD, Citrate pH 4.0, final pH 5.0) was 5600 µg/mL, the “concentration of 2-IB” value ([1]; 40% HP-CD, Citrate pH 5.0, final pH 5.6) was 2600 µg/mL and the “concentration of 2-IB” value ([1]; 40% HP-CD, WFI, final pH 6.7) was 1200 µg/mL. The bilirubin levels (Wistar rats; [9]) was “within the normal range”, the body weights (Wistar rats; [9]) was “increased for two animals” and the “clinical chemistry at the end of treatment” value (Wistar rats; [9]) was “slight to moderate increase in aspartate aminotransferase (1/2), alkaline phosphatase (1/2), and glucose (2/2)”. For the same compound, the “creatinine and urine at the end of treatment” value (Wistar rats; [9]) was “high values for creatinine and urine (1/2)”, the “macroscopic findings at necropsy” value (Wistar rats; [9]) was “oedema (2/3), pelvic dilation of the kidneys (2/3), enlarged liver (1/3), enlarged iliac lymph node (113), dark spots on the lungs (1/3), and fibrin-like coating in or around the femoral vein” and the clinical signs (Wistar rats; 960 mg/kg/24 h 2-IB in 5% Solutol, continuous iv infusion, Days 2-3) was “hunched posture, piloerection and pallor”. The mortality (Wistar rats; 960 mg/kg/24 h 2-IB in 5% Solutol/5% dextrose, continuous iv infusion 4 mL/kg/h, terminated after 46 hours) was “One animal died after 46 hours of infusion”, the “solubility, visually judged” value [2] was “did not dissolve in any of the surfactant solutions” and the “dissolution on formulation preparation” value [3] was “did not dissolve completely after overnight stirring”. For the same compound, the “concentration of fully dissolved and stable solution” value ([4]; 10 mg 2-IB+200 μl propylene glycol+100 μl 1N hydrochloric acid) was 33000 µg/mL, the “solubility, visually judged” value ([4]; 10 mg in 6400 μl (1.6 mg/ml) of 0.9% NaCl, 5% dextrose, DMA, DMF, DMSO, ethanol, propylene glycol, PEG 400 or corn oil) was “not sufficiently soluble in any of these solvents” and the “effect of addition of water” value ([4]; 33 mg/ml propylene glycol/hydrochloric acid formulation) was “immediately resulted in precipitation of 2-IB”. For the same compound, the “precipitation, visual observation” value ([4]; acidified 2-IB in 5% dextrose neutralized to pH 7) was “nearly all 2-IB has precipitated out of solution”, the “pH up to which partial neutralization is possible before precipitation” value ([4]; acidified 2-IB in 5% dextrose, nominal 1-5 mg/ml, 0.1% sodium hydroxide) was 3-3.5 and the “solubility, visually judged” value ([4]; same solvents after addition of 100 μl of 1N hydrochloric acid) was “fully dissolved in all solvents”. For the same compound, the solubility in water ([5]; pH 3.5) was “around 4.5 mg/ml”, the solubility in water ([5]; pH 5) was “around 0.59 mg/ml” and the solubility in water ([5]; pH 7.4) was “around 0.34 mg/ml”. The “pH at which solubility was achieved” value ([6]; HCl) was 3.0, the “pH at which solubility was achieved” value ([6]; weak acids (acetic acid and citric acid)) was 3.3 and the “Conc. 2IB” value ([7]; 50 mM Citrate pH 3.0, final pH 3.07, room temperature) was 11000 µg/mL and 11270 µg/mL. For the same compound, the “Conc. 2IB” value ([7]; 50 mM Citrate pH 3.5, final pH 3.52) was 4450 µg/mL, the “Conc. 2IB” value ([7]; 50 mM Citrate pH 4.0, final pH 4.03) was 1720 µg/mL and the “Conc. 2IB” value ([7]; 50 mM Citrate pH 4.5, final pH 4.54) was 860 µg/mL. For the same compound, the “Conc. 2IB” value ([7]; 50 mM Citrate pH 5.0, final pH 5.02) was 590 µg/mL, the “5 days at 5° C.” value ([8]; pH 4.0) was “−” and the “5 days at RT” value ([8]; pH 4.0) was “+”. The “5 days at 5° C.” value ([8]; pH 4.5) was “−”, the “5 days at RT” value ([8]; pH 4.5) was “+” and the “5 days at 5° C.” value ([8]; pH 5.0) was “−”. The “5 days at RT” value ([8]; pH 5.0) was “+”, the “5 days at 5° C.” value ([8]; pH 5.1) was “−” and the “5 days at RT” value ([8]; pH 5.1) was “+”. The “5 days at 5° C.” value ([8]; pH 5.5) was “−”, the “5 days at RT” value ([8]; pH 5.5) was “+” and the “5 days at 5° C.” value ([8]; pH 6.2) was “−”. For the same compound, the “5 days at RT” value ([8]; pH 6.2) was “+”, the “5 days at 5° C.” value ([8]; pH 7.0) was “−” and the “5 days at RT” value ([8]; pH 7.0) was “+”.
